Test results reported in patent publication US20030130799A1, “Structure/properties correlation with membrane affinity profile” (priority 2001, published 2003).
Like-named read-outs stand apart in the source and are kept apart here.

Columns and labels:
[1] = IAM chromatography membrane affinity (κ′) on esterIAM.PE C10/C3 column; settings: for LOG PE (log κ′ on esterIAM.PE C10/C3): 15% acetonitrile in 0.01M PBS buffer (pH 7.4) mobile phase
[2] = Prediction of clearance from IAM membrane affinity standard curve; set-up: species or system human; settings: Table 4; predicted using IAM k′ data
[3] = cited from earlier work; for Vd Observed: Table 2, 70-kg patient assumed; for Volume of Distribution (Ref.) category in brackets: class of the reference value
[4] = tested on: plasma proteins; settings: cited from earlier work; for Protein Binding Observed: Table 3
[5] = cited from earlier work; for total body clearance Observed: Table 4; for Clearance (Ref.): Table 5, Study 1, category
[6] = IAM chromatography membrane affinity (κ′) on esterIAM.PS C10/C3 column; settings: for Log PS (log κ′ on esterIAM.PS C10/C3): 15% acetonitrile in 0.01M PBS buffer (pH 7.4) mobile phase
[7] = tested on: plasma proteins; assay: Prediction of protein binding from IAM membrane affinity standard curve; set-up: species or system human; settings: Table 3; predicted using IAM k′ data (FIG. 20)
[8] = Prediction of volume of distribution from IAM membrane affinity standard curve; settings: Table 2; predicted using IAM k′ data (FIG. 19)
[9] = known ADME properties of the parent compound
[10] = column volumes of mobile phase needed to elute

Nc1nc2c(ncn2COCCO)c(=O)[nH]1 [Acyclovir]
LOG PE (log κ′ on esterIAM.PE C10/C3) [1]: −1.17

COc1ccc([C@@H]2Sc3ccccc3N(CCN(C)C)C(=O)[C@@H]2OC(C)=O)cc1 [Diltiazem]
total body clearance Predicted [2]: HIGH > 0.327 (HIGH > 0.327)
Vd Observed [3]: 217 L
Protein Binding Observed [4]: 78
total body clearance Observed [5]: 0.84
Log PS (log κ′ on esterIAM.PS C10/C3) [6]: 2.54
LOG PE (log κ′ on esterIAM.PE C10/C3) [1]: 1.87

Nc1nnc(-c2cccc(Cl)c2Cl)c(N)n1 [Lamotrigine]
total body clearance Predicted [2]: LOW < 0.327 (LOW < 0.327)
Vd Observed [3]: 91 L
Protein Binding Observed [4]: 55
Log PS (log κ′ on esterIAM.PS C10/C3) [6]: 0.96

Fc1ccc([C@@H]2CCNC[C@H]2COc2ccc3c(c2)OCO3)cc1 [Paroxetine]
Protein Binding Predicted [7]: Greater than 90
total body clearance Predicted [2]: HIGH > 0.327 (HIGH > 0.327)
Vd Observed [3]: 1190 L
Protein Binding Observed [4]: 95
total body clearance Observed [5]: 0.602
Log PS (log κ′ on esterIAM.PS C10/C3) [6]: 3.37
LOG PE (log κ′ on esterIAM.PE C10/C3) [1]: 2.33

CNC(=C[N+](=O)[O-])NCCSCc1ccc(CN(C)C)o1 [Ranitidine]
Vd Observed [3]: 91 L
Protein Binding Observed [4]: 15
Log PS (log κ′ on esterIAM.PS C10/C3) [6]: 0.83
LOG PE (log κ′ on esterIAM.PE C10/C3) [1]: 0.15

CCCN(CCC)CCc1cccc2c1CC(=O)N2 [Ropinirole]
Protein Binding Predicted [7]: 40-90
total body clearance Predicted [2]: HIGH > 0.327 (HIGH > 0.327)
Vd Observed [3]: 525 L
Protein Binding Observed [4]: 68
Vd Predicted [8]: VERY HIGH (>250 L) (VERY HIGH (>250 L))

CCCC(=O)Nc1ccc(OCC(O)CNC(C)C)c(C(C)=O)c1 (stereo not shown) [acebutolol]
Volume of Distribution (L) (Ref.) ([3]; Table 6, Study 2): 84 L

O=C1CN=C(c2ccccc2Cl)c2cc([N+](=O)[O-])ccc2N1 [clonazepam]
Volume of Distribution (L) (Ref.) ([3]; Table 5, Study 1): 210 L
Vd [3, 9]: 224 L
% Protein Binding (Ref.) ([4]; Table 5, Study 1): 86%
Protein binding [4, 9]: 86%
Clearance (Ref.) [5]: low
CL [5, 9]: 0.109 L/min

O=C(NCC1CCCCN1)c1cc(OCC(F)(F)F)ccc1OCC(F)(F)F (stereo not shown) [flucainide]
Volume of Distribution (L) (Ref.) ([3]; Table 6, Study 2): 343 L
% Protein Binding (Ref.) ([4]; Table 6, Study 2): 61%

CN1C(=O)CN=C(c2ccccc2F)c2cc([N+](=O)[O-])ccc21 [flunitrazepam]
% Protein Binding (Ref.) ([4]; Table 5, Study 1): 77%

CNCCC(Oc1ccc(C(F)(F)F)cc1)c1ccccc1 (stereo not shown) [fluoxetine]
Volume of Distribution (L) (Ref.) ([3]; Table 6, Study 2): 2450 L
% Protein Binding (Ref.) ([4]; Table 6, Study 2): 94%

CC(CCc1ccccc1)NCC(O)c1ccc(O)c(C(N)=O)c1 (stereo not shown) [labetalol]
% Protein Binding (Ref.) ([4]; Table 6, Study 2): 50%

O=C1Nc2ccc(Cl)cc2C(c2ccccc2Cl)=NC1O (stereo not shown) [lorazepam]
Volume of Distribution (L) (Ref.) ([3]; Table 5, Study 1): 91 L
Volume of Distribution (Ref.) category in brackets ([3]; Table 5, Study 1): (high) (“high” (70-250 L))
Clearance (Ref.) [5]: low

COCCc1ccc(OCC(O)CNC(C)C)cc1 (stereo not shown) [metoprolol]
Volume of Distribution (L) (Ref.) ([3]; Table 6, Study 2): 294 L

Cc1cccc(C)c1OCC(C)N (stereo not shown) [mexiletine]
Volume of Distribution (L) (Ref.) ([3]; Table 6, Study 2): 343 L
% Protein Binding (Ref.) ([4]; Table 6, Study 2): 63%

CC(C)(C)NCC(O)COc1cccc2c1CC(O)C(O)C2 (stereo not shown) [nadolol]
Volume of Distribution (L) (Ref.) ([3]; Table 6, Study 2): 133 L
% Protein Binding (Ref.) ([4]; Table 6, Study 2): 20%

O=C1CN=C(c2ccccc2)c2cc([N+](=O)[O-])ccc2N1 [nitrazepam]
Volume of Distribution (L) (Ref.) ([3]; Table 5, Study 1): 133 L
Volume of Distribution (Ref.) category in brackets ([3]; Table 5, Study 1): (high) (“high” (70-250 L))
Clearance (Ref.) [5]: low

CCCCC1C(=O)N(c2ccccc2)N(c2ccccc2)C1=O [phenylbutazone]
Volume of Distribution (L) (Ref.) ([3]; Table 6, Study 2): 7 L

CC(C)NCC(O)COc1cccc2ccccc12 (stereo not shown) [propranolol]
Volume of Distribution (L) (Ref.) ([3]; Table 6, Study 2): 301 L

CC(C)(C)NCC(O)c1cc(O)cc(O)c1 (stereo not shown) [terbutaline]
Volume of Distribution (L) (Ref.) ([3]; Table 6, Study 2): 126 L
% Protein Binding (Ref.) ([4]; Table 6, Study 2): 20%

COc1cc(Cc2cnc(N)nc2N)cc(OC)c1OC [trimethoprim]
κ′ on the esterIAM.PS C10/C3 column [6, 10]: 10
affinity for the esterIAM.PS C10/C3 column compared to the esterIAM.PE column ([6]; ratio of κ′ PS / κ′ PE): ~5 times
κ′ on the esterIAM.PE C10/C3 column [1, 10]: 2
